Experimental data: patent publication US20250161395A1, “SPINAL CORD REGENERATION THERAPY” (MOLEAC PTE LTD., priority 2022, published 2025)

System: NSC-34 cells
Assay: NSC-34 cell differentiation into mature motor neurons
Type: cell-based

For `CC1=C(/C=C/C(C)=C/C=C/C(C)=C/C(=O)O)C(C)(C)CCC1` [RA, retinoic acid], the “time to NSC-34 cell differentiation” value (1 μM RA) was 14 days and the “time to NSC-34 cell differentiation” value (10 μM RA) was 7 days.
